Experimental data as given in patent US20230138752A1, “PLASTICIZERS TO IMPROVE RELEASE PERFORMANCE OF AMORPHOUS SOLID DISPERSIONS” (Purdue Research Foundation, priority 2021, published 2023).
Entries after “also recorded” stand apart in the source; their conditions may differ. Structures can show the parent of a compound that is named as a salt. Where two headings read alike, the source gives them in different places.

What was measured:
[1] = Glass transition temperature (Tg) by DSC; assay type: physicochemical; conditions: for Tg of the API: neat API (dry Tg); for reduction of ASD Tg on increasing plasticizer from 5 to 10% w/w: LED 10% DL
Experimental: Glass transition temperature and plasticizer-API miscibility was determined using a TA Q2000 differential scanning calorimeter (DSC) (TA Instruments, New Castle, DE) with a refrigerated cooling accessory (RCS) using N2 as the purge gas at a flow of 50 ml/min. For Tg determination, around 5 mg of sample was accurately weighed into an aluminum pan with a Tzero lid and subject to a cool-heat-cool cycle. Samples were cooled at -20° C. and heated up to 220° C. The heating was done in modulated mode at a heating rate of 2° C/min with a modulation period of +/−1° C. every 60 seconds. The midpoint temperature of the heat capacity change in the thermogram from the second heating cycle scan was taken as the Tg. The DSC was calibrated with indium at the appropriate heating rate.

[2] = literature; cited from earlier work
[3] = Surface normalized dissolution of ASD tablets (release, limit of congruency); assay type: physicochemical; conditions: for limit of congruency (LoC) of ATZ-PVPVA ASDs: ASD containing 5% w/w of the plasticizer; for lag time in the release profile: ATZ-PVPVA ASD at the LoC (20% DL TEC, 25% DL TEAC and TBAC); for total release of LED / release of LED: LED 10% DL; for limit of congruency (LoC) of LED-PVPVA ASDs: ASD containing 10% w/w of the plasticizer; for increase in LoC of ATZ versus binary ASD / normalized release rate of drug and polymer versus neat PVPVA: ATZ-PVPVA ASD; for increase in LoC of LED versus binary ASD: LED-PVPVA ASD; for dissolution rate of PVPVA containing plasticizer versus neat PVPVA: PVPVA with 10% w/w plasticizer, no drug; for normalized release rate of drug and polymer versus neat PVPVA: ATZ 10 DL+GTA, ATZ 25DL+GTB
Experimental: All dissolution experiments were conducted in 50 mM phosphate buffer pH 6.8 prepared by dissolving 3.52 g of sodium phosphate monobasic monohydrate and 3.48 g of sodium phosphate dibasic anhydrous to 1L with Milli-Q water. The pH was adjusted to pH 6.8 if needed using HCl or NaOH.
Surface normalized dissolution was employed to evaluate the release performance of the ASDs and to calculate the normalized release rate. A Hanson Vision G2 dissolution tester with a Vision heater (Teledyne Hanson Chatsworth, CA) was utilized. A tablet was prepared immediately prior to the dissolution test by compressing 100 mg of ASD in an 8 mm die at 2 500 psi for 60 seconds yielding a tablet surface are of 50 mm^2. The temperature was maintained at 37° C., the rotation speed was 100 rpm, and the dissolution medium was 50 mM phosphate buffer pH 6.8 degassed and pre-equilibrated at 37° C. 100 to 200 μl of sample was withdrawn every 5 min for the initial 20 minutes, then every 10 minutes until 60 minutes and finally at 75, 90 and 120 minutes. The medium was replenished after each sample withdrawal to maintain a constant volume.
The concentration of API and polymer during the dissolution was assessed by high performance liquid chromatography (HPLC) using an Agilent 1100 system (Agilent Technologies, Santa Clara, Calif.). An Ascentis® Express C18 10 cm×3 mm with 2.7 μm particle size column (Sigma-Aldrich St. Louis, Mo.) was employed for separation of ATZ, RTV, and LED. […] For ATZ and LED, the mobile phase was aqueous TFA 0.1% v/v:acetonitrile (ACN) 6:4 v/v at a flow rate of 0.5 ml/min, injection volume 10 detection wavelength (X.) 210 nm, and column temperature 40° C. For RTV, the mobile phase was aqueous TFA 0.1% v/v:ACN 6:4 v/v, flow rate 0.5 ml/min, injection volume 10 detection λ 241 nm and column temperature 40° C.
The surface normalized dissolution rate (R) was calculated based on the mg released versus time profile. The slope from cumulative mg release vs time represents the release rate (k). To normalize, k was divided by the tablet surface area (S, 0.5 cm^2) times the fraction of the component (x) (Equation 1)

[4] = Dynamic vapor sorption (DVS), isothermal water sorption; assay type: physicochemical; conditions: for effect of plasticizer on polymer (PVPVA) water sorption: PVPVA containing GTB or TBC
Experimental: The isothermal water sorption at 37° C. was measured for selected ASDs using a DVS-Advantage device (Surface Measurement System Ltd Allentown, Pa.). Around 5 mg of sample was first dried at 0% relative humidity (RH) and 37° C. for one hour followed by exposure to 95% RH and 37° C. for at least 8 hours. Percent of water sorbed and derivative of percent mass over time (dm/dT %) was analyzed.

[5] = API:plasticizer 8:1 miscibility and Tg depression by DSC; assay type: physicochemical
Experimental: API:plasticizer at a ratio 8:1 was prepared by rotary evaporation to evaluate miscibility and Tg depression produced by the plasticizer. 3 to 5 mg was accurately weighed in an aluminum pan with a hermetic lid with a pinhole. Since the Tg was evaluated after only 1 hour of vacuum drying to avoid crystallization, a second drying was done by employing an isothermal hold at 20° C. in the DSC with nitrogen flow for at least 20 minutes. Then, the sample was cooled to −60 and heated at 2° C./min to 210° C. with a modulation period +/−1° C. every 60 seconds.

[6] = 20% DL ATZ ternary ASD, 5% w/w plasticizer, 95% RH/37° C.

For `CC(C)c1nc(CN(C)C(=O)N[C@H](C(=O)N[C@@H](Cc2ccccc2)C[C@H](O)[C@H](Cc2ccccc2)NC(=O)OCc2cncs2)C(C)C)cs1` [RTV, ritonavir, reference compound], the “Tg of the API” value [1] is given as 50 °C, the “limit of congruency (LoC) of PVPVA-based ASD, reported” value (“limit of congruency (LoC) … reported” for short) [2] is given as 25 % DL and the “increase in LoC of RTV versus binary ASD” value ([3]; RTV-PVPVA ASD with plasticizers GTB and TBC) is given as 1.2 fold.

For `CCCCOC(=O)CC(CC(=O)OCCCC)(OC(C)=O)C(=O)OCCCC` [TBAC, Tributyl-o-acetylcitrate], the “limit of congruency (LoC) of ATZ-PVPVA ASDs” value (from here on “limit … of ATZ-PVPVA ASDs”) [3] was 25 % DL and the “lag time in the release profile” value ([3]; 5% w/w plasticizer) was “around 20 min”.

In the case of `CCOC(=O)CC(O)(CC(=O)OCC)C(=O)OCC` [TEC, triethyl citrate], the “water uptake versus binary 20% DL ATZ ASD” value [4, 6] is reported as “very similar water uptake as the binary ASD”, the “reduction of ASD Tg on increasing plasticizer from 5 to 10% w/w” value [1] is reported as 10 °C and the “limit … of ATZ-PVPVA ASDs” value [3] is reported as 20 % DL. The “lag time in the release profile” value ([3]; 5% w/w plasticizer) was “around 20 min” and the “total release of LED” value ([3]; 5% w/w plasticizer) was 12%.

For `O=C(O)CC(O)(CC(=O)O)C(=O)O` [citric acid], the “limit … of ATZ-PVPVA ASDs” value [3] was 7.5 % DL and the “release of LED” value ([3]; 5% w/w plasticizer) was “complete release”.

With `CCCCOC(=O)CC(O)(CC(=O)OCCCC)C(=O)OCCCC` [TBC, Tri-n-butyl citrate] the “water uptake versus binary 20% DL ATZ ASD” value [4, 6] was “slight increase in water uptake”, the “water uptake at 10, 20 and 30% DL” value ([4]; ATZ ternary ASD containing 5% w/w TBC) was “similar” and the “effect of plasticizer on polymer (PVPVA) water sorption” value [4] was “dramatically reduced”. For the same molecule, the “release from RTV-PVPVA ASD” value ([3]; 30% DL, 5% w/w plasticizer) was “Complete release”, the “release from RTV-PVPVA ASD” value ([3]; 35% DL, 5% w/w plasticizer) was “not at 35% DL” and the “limit … of ATZ-PVPVA ASDs” value [3] was 25 % DL. The “limit of congruency (LoC) of LED-PVPVA ASDs” value (“limit … of LED-PVPVA ASDs” below) [3] was 15 % DL, the “increase in LoC of ATZ versus binary ASD” value ([3]; 5% w/w plasticizer) was 5 fold and the “release of LED” value ([3]; 10% w/w plasticizer) was “complete drug release”. For the same molecule, the “increase in LoC of LED versus binary ASD” value ([3]; 10% w/w plasticizer) was 3 fold and the “dissolution rate of PVPVA containing plasticizer versus neat PVPVA” value [3] was “as much as twice; also recorded: faster dissolution rate”.

For `COC(=O)N[C@H](C(=O)N1CC2(CC2)C[C@H]1c1nc(-c2ccc3c(c2)C(F)(F)c2cc(-c4ccc5[nH]c([C@@H]6[C@H]7CC[C@H](C7)N6C(=O)[C@@H](NC(=O)OC)C(C)C)nc5c4)ccc2-3)c[nH]1)C(C)C` [LED, ledipasvir], the “Tg of the API” value [1] is listed as 160 °C, the “limit of congruency (LoC) … reported” value [2] is listed as ~5 % DL and the Tg ([5]; LED:plasticizer 8:1 amorphous mix) is listed as 162 °C.

For `Clc1ccc(COC(Cn2ccnc2)c2ccc(Cl)cc2Cl)c(Cl)c1` (stereo not shown) [miconazole], the “limit of congruency (LoC) … reported” value [2] is given as 25 % DL.

For `OCC(O)CO` [glycerol, Glycerol], the “limit … of ATZ-PVPVA ASDs” value [3] was 7.5 % DL and the “increase in LoC of ATZ versus binary ASD” value ([3]; 5% w/w plasticizer) was 1.5 fold.

In the case of `CC(=O)OCC(CO)OC(C)=O` (stereo not shown) [GDA, glycerol diacetate], the “limit … of ATZ-PVPVA ASDs” value [3] is reported as 7.5 % DL.

With `CCOC(=O)CC(CC(=O)OCC)(OC(C)=O)C(=O)OCC` [TEAC, triethyl acetyl citrate] the “water uptake versus binary 20% DL ATZ ASD” value [4] was “slight increase in water uptake”, the “reduction of ASD Tg on increasing plasticizer from 5 to 10% w/w” value [1] was 14 °C and the “limit … of ATZ-PVPVA ASDs” value [3] was 25 % DL. The “limit … of LED-PVPVA ASDs” value [3] was 15 % DL, the “lag time in the release profile” value ([3]; 5% w/w plasticizer) was “around 20 min” and the “total release of LED” value ([3]; 5% w/w plasticizer) was 20%. The “release of LED” value ([3]; 10% w/w plasticizer) was “complete drug release”.

With `CC(=O)OCC(COC(C)=O)OC(C)=O` [GTA, Glycerol triacetate] the “limit … of ATZ-PVPVA ASDs” value [3] was 10 % DL and the “normalized release rate of drug and polymer versus neat PVPVA” value ([3]; 5% w/w plasticizer) was “faster than that of neat PVPVA”.

With `CCCC(=O)OCC(COC(=O)CCC)OC(=O)CCC` [GTB, Glycerol tributyrate] the “water uptake versus binary 20% DL ATZ ASD” value [4, 6] was “more prominent increase of water uptake”, the “effect of plasticizer on polymer (PVPVA) water sorption” value [4] was “dramatically reduced” and the “release from RTV-PVPVA ASD” value ([3]; 30% DL, 5% w/w plasticizer) was “Complete release”. The “release from RTV-PVPVA ASD” value ([3]; 35% DL, 5% w/w plasticizer) was “not at 35% DL”, the “limit … of ATZ-PVPVA ASDs” value [3] was 25 % DL and the “limit … of LED-PVPVA ASDs” value [3] was 20 % DL. For the same molecule, the “increase in LoC of ATZ versus binary ASD” value ([3]; 5% w/w plasticizer) was 5 fold, the “normalized release rate of drug and polymer versus neat PVPVA” value ([3]; 5% w/w plasticizer) was “faster than that of neat PVPVA” and the “release of LED” value ([3]; 10% w/w plasticizer) was “complete drug release”. The “increase in LoC of LED versus binary ASD” value ([3]; 10% w/w plasticizer) was 4 fold and the “dissolution rate of PVPVA containing plasticizer versus neat PVPVA” value [3] was “as much as twice; also recorded: faster dissolution rate”.

In the case of `COC(=O)N[C@H](C(=O)N[C@@H](Cc1ccccc1)[C@@H](O)CN(Cc1ccc(-c2ccccn2)cc1)NC(=O)[C@@H](NC(=O)OC)C(C)(C)C)C(C)(C)C` [ATZ, atazanavir], the “limit of congruency (LoC) … reported” value [2] is listed as ~5 % DL and the Tg ([5]; ATZ:plasticizer 8:1 amorphous mix) is listed as 105.5 °C.
